# Measured values from ChEMBL document CHEMBL1127443 (J Med Chem, 1994).
# Key:
# [1] = target: T1, Serotonin 3 (5-HT3) receptor (Rattus norvegicus, UniProt P35563+Q9JJ16); assay: Binding affinity was measured on 5-hydroxytryptamine 3 receptor in NG-108 cells labeled with [3H]GR-65630; assay type: cell-based
# T1 sequence (P35563 whole entry): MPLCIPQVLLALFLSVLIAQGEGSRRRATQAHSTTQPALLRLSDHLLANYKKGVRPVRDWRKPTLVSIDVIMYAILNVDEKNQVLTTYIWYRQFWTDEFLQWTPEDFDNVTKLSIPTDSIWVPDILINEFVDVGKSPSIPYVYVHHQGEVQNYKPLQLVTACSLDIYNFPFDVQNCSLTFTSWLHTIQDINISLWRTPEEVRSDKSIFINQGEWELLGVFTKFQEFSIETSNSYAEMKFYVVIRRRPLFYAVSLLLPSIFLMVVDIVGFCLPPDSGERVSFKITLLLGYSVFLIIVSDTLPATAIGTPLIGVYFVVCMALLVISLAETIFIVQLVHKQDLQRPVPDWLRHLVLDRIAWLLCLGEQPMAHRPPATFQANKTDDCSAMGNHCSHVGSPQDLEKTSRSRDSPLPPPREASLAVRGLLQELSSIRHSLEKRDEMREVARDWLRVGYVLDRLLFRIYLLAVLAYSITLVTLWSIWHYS
# T1 sequence (Q9JJ16 whole entry): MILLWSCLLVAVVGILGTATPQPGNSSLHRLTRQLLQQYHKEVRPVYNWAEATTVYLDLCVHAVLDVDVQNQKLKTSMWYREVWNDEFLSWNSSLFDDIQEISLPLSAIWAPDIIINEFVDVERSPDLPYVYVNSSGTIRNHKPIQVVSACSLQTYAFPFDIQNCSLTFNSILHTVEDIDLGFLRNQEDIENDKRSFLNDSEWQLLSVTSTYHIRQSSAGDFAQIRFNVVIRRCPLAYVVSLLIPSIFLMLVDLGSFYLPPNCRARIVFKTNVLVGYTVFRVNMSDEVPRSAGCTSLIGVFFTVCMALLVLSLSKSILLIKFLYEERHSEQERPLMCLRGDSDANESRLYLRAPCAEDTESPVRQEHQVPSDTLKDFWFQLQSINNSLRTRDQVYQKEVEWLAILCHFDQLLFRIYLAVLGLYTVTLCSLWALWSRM
# [2] = target: T2, 5-hydroxytryptamine receptor 2C (Rattus norvegicus, UniProt P08909); assay: Binding affinity was measured on 5-hydroxytryptamine 2C receptor in J1 cells transfected with rat 5-HT2C gene labeled with [3H]mesulergine; assay type: cell-based
# T2 sequence (P08909 whole entry): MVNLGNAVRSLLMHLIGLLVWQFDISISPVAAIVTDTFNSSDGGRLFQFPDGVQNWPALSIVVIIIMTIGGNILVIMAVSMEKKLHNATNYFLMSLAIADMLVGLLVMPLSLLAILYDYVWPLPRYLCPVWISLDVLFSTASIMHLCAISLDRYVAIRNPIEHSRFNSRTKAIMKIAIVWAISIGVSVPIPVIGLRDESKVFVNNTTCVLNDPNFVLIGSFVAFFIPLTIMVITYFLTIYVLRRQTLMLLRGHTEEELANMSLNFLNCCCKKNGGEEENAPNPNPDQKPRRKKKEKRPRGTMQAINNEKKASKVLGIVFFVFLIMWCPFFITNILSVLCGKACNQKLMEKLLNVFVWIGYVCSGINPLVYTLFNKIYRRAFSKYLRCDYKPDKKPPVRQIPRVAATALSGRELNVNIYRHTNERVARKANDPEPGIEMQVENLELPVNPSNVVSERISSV
# [3] = target: T3, 5-hydroxytryptamine receptor 1D (Homo sapiens, UniProt P28221); assay: Compound was evaluated for its agonistic activity on 5-hydroxytryptamine 1D receptor; assay type: functional
# [4] = target: T3, 5-hydroxytryptamine receptor 1D; assay: Binding affinity was measured on 5-hydroxytryptamine 1D receptor alpha in COS cells transfected with human 5-HT1D alpha gene labeled with [3H]5-HT; assay type: cell-based
# [5] = target: 5-hydroxytryptamine receptor 2A (Homo sapiens, UniProt P28223); assay: biochemical; assay type: cell-based, GF6
# [6] = target: 5-hydroxytryptamine receptor 1B (Rattus norvegicus, UniProt P28564); assay: Binding affinity was measured on 5-hydroxytryptamine 1B receptor in rat striatum labeled with [3H]5-HT; assay type: tissue-based
# Chain of 5-hydroxytryptamine receptor 1B (P28564 whole entry): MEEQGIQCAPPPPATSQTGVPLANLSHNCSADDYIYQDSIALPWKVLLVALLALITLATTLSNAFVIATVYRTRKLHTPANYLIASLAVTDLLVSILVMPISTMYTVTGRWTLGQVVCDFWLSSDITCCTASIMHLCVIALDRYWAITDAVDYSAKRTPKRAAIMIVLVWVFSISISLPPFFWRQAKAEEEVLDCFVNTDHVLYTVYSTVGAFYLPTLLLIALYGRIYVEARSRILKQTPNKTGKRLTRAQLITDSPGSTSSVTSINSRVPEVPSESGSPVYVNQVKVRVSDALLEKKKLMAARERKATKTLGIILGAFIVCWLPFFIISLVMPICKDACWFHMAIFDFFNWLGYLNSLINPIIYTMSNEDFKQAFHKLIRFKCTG
# T3 sequence (P28221 whole entry): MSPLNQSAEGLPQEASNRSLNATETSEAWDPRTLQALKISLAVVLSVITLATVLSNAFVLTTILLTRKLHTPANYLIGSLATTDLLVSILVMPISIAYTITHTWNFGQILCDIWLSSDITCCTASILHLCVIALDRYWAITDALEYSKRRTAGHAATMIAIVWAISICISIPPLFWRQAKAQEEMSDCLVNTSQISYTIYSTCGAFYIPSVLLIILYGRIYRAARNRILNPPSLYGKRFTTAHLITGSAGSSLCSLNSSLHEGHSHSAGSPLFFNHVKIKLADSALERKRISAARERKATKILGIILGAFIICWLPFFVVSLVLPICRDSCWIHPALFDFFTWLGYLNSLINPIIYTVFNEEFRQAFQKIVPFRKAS
# Chain of 5-hydroxytryptamine receptor 2A (P28223 whole entry): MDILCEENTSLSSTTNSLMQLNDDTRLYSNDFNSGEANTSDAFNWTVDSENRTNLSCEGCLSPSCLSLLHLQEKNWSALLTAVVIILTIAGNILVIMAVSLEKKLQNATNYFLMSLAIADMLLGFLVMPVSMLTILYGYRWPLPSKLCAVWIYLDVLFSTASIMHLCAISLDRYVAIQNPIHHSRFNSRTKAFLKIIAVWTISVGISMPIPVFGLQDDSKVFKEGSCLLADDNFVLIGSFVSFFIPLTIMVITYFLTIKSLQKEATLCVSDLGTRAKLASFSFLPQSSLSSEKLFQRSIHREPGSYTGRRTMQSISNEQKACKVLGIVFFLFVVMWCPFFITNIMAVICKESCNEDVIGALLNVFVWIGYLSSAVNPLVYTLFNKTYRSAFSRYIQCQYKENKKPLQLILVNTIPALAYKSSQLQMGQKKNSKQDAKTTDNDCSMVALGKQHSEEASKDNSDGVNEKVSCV
SMILES,Ki [1] [nM],Ki [2] [nM],ED50 [3] [nM],Ki [4] [nM],Ki [5] [nM],Ki [6] [nM]
CCCCCCCCCOc1ccc2[nH]cc(CCN)c2c1,> 1000,270,68,16,260,13
CNS(=O)(=O)Cc1ccc2[nH]cc(CCN(C)C)c2c1,> 1000,> 1000,317,,,
NCCc1c[nH]c2ccc(O)cc12,,,1.2,,,
